# Laboratory results from the supplement of paper PMC5579334.
# ± gives the standard deviation of the averaged measurements.
# Legend:
# ST8814 [1] = test: % inhibition of CellTiter-Glo viability at highest tested concentration (72 h), relative to DMSO and benzethonium chloride controls; higher = more inhibition
# Summary of the method: (§1)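 Viability of MPNST cell lines and primary human Schwann cells was read as CellTiter-Glo ATP luminescence after 72 h at 37 °C, 5% CO2, in 384-well plates seeded with 750–1000 cells per well. Each compound had been preprinted at five concentrations in 10-fold steps. Signals were scaled between vehicle and positive-control wells, duplicates averaged where present, and fitted with four-parameter logistic curves. Drug sensitivity score and relative IC50 (censored at the top concentration) come from those fits, and percent inhibition is taken at the top concentration.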
# [2] = test system: HSC1 (primary human Schwann cells); test: as above
# Summary of the method: as §1
# YST-1 [3] = test: as above
# Summary of the method: as §1
# [4] = test system: HSC2 (primary human Schwann cells); test: as above
# Summary of the method: as §1
# S462 [5] = test: as above
# Summary of the method: as §1
# HS-PSS [6] = test: as above
# Summary of the method: as §1
# HS-Sch-2 [7] = test: as above
# Summary of the method: as §1
# S1507-2 [8] = test: as above
# Summary of the method: as §1
# STS26T [9] = test: as above
# Summary of the method: as §1
# ST8814 [10] = test: drug sensitivity score (DSS, CellTiter-Glo viability, 72 h) (DSS (dimensionless)); higher = more sensitive; extreme values may be limits of the assay
# Summary of the method: as §1
# [11] = test system: HSC1 (primary human Schwann cells); test: as above
# Summary of the method: as §1
# YST-1 [12] = test: as above
# Summary of the method: as §1
# [13] = test system: HSC2 (primary human Schwann cells); test: as above
# Summary of the method: as §1
# S462 [14] = test: as above
# Summary of the method: as §1
# HS-PSS [15] = test: as above
# Summary of the method: as §1
# HS-Sch-2 [16] = test: as above
# Summary of the method: as §1
# S1507-2 [17] = test: as above
# Summary of the method: as §1
# STS26T [18] = test: as above
# Summary of the method: as §1
# ST8814 [19] = test: drug sensitivity score (DSS, CellTox-Green cytotoxicity, 72 h) (DSS (dimensionless)); higher = more cytotoxic; extreme values may be limits of the assay
# Summary of the method: (§2)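 MPNST cell lines and primary human Schwann cells were grown for 72 h at 37 °C in 384-well plates containing five 10-fold compound dilutions. CellTox-Green, added before seeding at a final 1:1000 dilution, gave fluorescence from DNA released by disrupted cells, and signals were scaled to vehicle and positive-control wells. Curves were fitted with a four-parameter logistic model. Drug sensitivity score and relative IC50 come from these fits, with IC50 censored at the top concentration.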
# [20] = test system: HSC1 (primary human Schwann cells); test: as above
# Summary of the method: as §2
# [21] = test system: HSC2 (primary human Schwann cells); test: as above
# Summary of the method: as §2
# HS-PSS [22] = test: as above
# Summary of the method: as §2
# S1507-2 [23] = test: as above
# Summary of the method: as §2
# STS26T [24] = test: as above
# Summary of the method: as §2
Compound,% inhibition (ST8814 [1]) [%],% inhibition [2] [%],% inhibition (YST-1 [3]) [%],% inhibition [4] [%],% inhibition (S462 [5]) [%],% inhibition (HS-PSS [6]) [%],% inhibition (HS-Sch-2 [7]) [%],% inhibition (S1507-2 [8]) [%],% inhibition (STS26T [9]) [%],drug sensitivity score (ST8814 [10]),drug sensitivity score [11],drug sensitivity score (YST-1 [12]),drug sensitivity score [13],drug sensitivity score (S462 [14]),drug sensitivity score (HS-PSS [15]),drug sensitivity score (HS-Sch-2 [16]),drug sensitivity score (S1507-2 [17]),drug sensitivity score (STS26T [18]),drug sensitivity score (ST8814 [19]),drug sensitivity score [20],drug sensitivity score [21],drug sensitivity score (HS-PSS [22]),drug sensitivity score (S1507-2 [23]),drug sensitivity score (STS26T [24])
Cc1cnc(NC(=O)Nc2cc(Br)c(C)cc2OC[C@@H]2CNCCO2)cn1 [Rabusertib] (max concentration tested 1000 nM),2.25,11.3,32.8,22.3,91.37 ± 0.63,17.4,84.7,51.1 ± 10,36.4,0,0.0015,1.96,1.36,5.07 ± 0.2,0.93,4.93,3.39 ± 0.54,2.75,0,0.0001,0,0,1.21 ± 1.4,1.88
NC1(c2ccc(-c3nc4ccn5c(=O)[nH]nc5c4cc3-c3ccccc3)cc2)CCC1 [MK-2206] (max concentration tested 1000 nM),2.43,11,46.2,-3.64,10.5 ± 1.5,18,13.3,23.8 ± 1.6,29.9,0,0.083,4.28,0,0.275 ± 0.12,1.05,0.49,2.75 ± 0.87,2.7,0,0,0,0,0,0
COC(=O)C[C@](O)(CCCC(C)(C)O)C(=O)O[C@@H]1C(OC)=C[C@]23CCCN2CCc2cc4c(cc2[C@H]13)OCO4 [Omacetaxine] (max concentration tested 10000 nM),88.6,92,99.5,96.2,99.121 ± 0.0091,80.3,102,98.539 ± 0.044,98.6,25.2,25.4,36.4,26.6,31.4 ± 0.81,23.1,26,25.33 ± 0.068,27.9,5,8.49,11.7,1.24,13.4 ± 3,15
CC(C)Cn1cnc2c(N)nc3ccccc3c21 [Imiquimod] (max concentration tested 2500 nM),-6.88,-1.61,4.76,6.67,1.41 ± 6.7,14.8,16.9,-4.77 ± 3.7,3.07,0,0,0,0,0,0.9,0.45,0,0,0,0,0,0,0,0
O=c1[nH]c(=O)n([C@H]2C[C@H](O)[C@@H](CO)O2)cc1F [Floxuridine] (max concentration tested 10000 nM),57.8,53.1,68.3,53.8,84.1 ± 3.6,30.7,84.7,31.3 ± 10,77.3,12.5,6.07,14.7,10.6,22.4 ± 2.9,2.58,17.9,5.09 ± 3.2,21.5,2.95,1.27,0.287,0,0,7.21
CC(C)(C)NC(=O)[C@H]1CC[C@H]2[C@@H]3CC[C@H]4NC(=O)C=C[C@]4(C)[C@H]3CC[C@]12C [Finasteride] (max concentration tested 10000 nM),6.23,0.189,2.29,0.769,2.86 ± 8.6,4.42,8.19,-1.69 ± 4.2,9.35,0,0,0,0,0,0,0,0,0,0,0,0,0,0.774 ± 1.1,0
CC(C)c1c(C(=O)Nc2ccccc2)c(-c2ccccc2)c(-c2ccc(F)cc2)n1CC[C@@H](O)C[C@@H](O)CC(=O)O [Atorvastatin] (max concentration tested 10000 nM),55.2,97.5,89.5,101,96.5 ± 1.1,75.3,80.5,41.9 ± 8,69.6,3.73,16.6,6.47,19.7,9.93 ± 0.43,6.74,6.02,2.53 ± 0.48,5.4,2.32,17.1,19.6,0,1.46 ± 2.1,2.9
C=CC(=O)N1CCC[C@@H](n2nc(-c3ccc(Oc4ccccc4)cc3)c3c(N)ncnc32)C1 [Ibrutinib] (max concentration tested 1000 nM),2.81,-4.13,-1.93,-1.15,-0.0582 ± 2.1,7.7,0.01,-8.72 ± 4.8,2.46,0,0,0,0,0,1.17,0,0,0,0,0,0,0,0,0
